Reference: patent US20230123334A1, “AMINO LIPID COMPOUND, PREPARATION METHOD THEREFOR, AND APPLICATION THEREOF” (SHENZHEN SHENXIN BIOTECHNOLOGY CO., LTD., priority 2020, published 2023)

Test system: HEK293 cells
Test: Preliminary screening as mRNA vectors, EGFP mRNA transfection of HEK293 cells
Format: cell-based
Conditions: EGFP mRNA 50 ng per well, 96-well plates; percentage of GFP fluorescent cells relative to total number of cells (Hoechst)
Procedure, shortened: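 Screening format: EGFP mRNA transfection (50 ng/well) into HEK293 in 10% FBS-supplemented DMEM. Percent green fluorescent cells, normalised to Hoechst nuclear count, gave the value; Lipofectamine2000 was the reference transfectant.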

Point of comparison: `CCCCCCCCCCCCCCCCNc1nc(NCCN(CC)CC)nc(SCCCCCC)n1` [Compound D7S6N16], “Absolute mRNA transfection efficiency in HEK293 cells” value 3.0%. Against it:
- CCCCCCCCCCCCCCCSc1nc(NCCCCCC)nc(NCCCN2CCN(C)CC2)n1 [Compound D9S15N6] — higher, 30.7%
- CCCCCCCCCCCCCCCCNc1nc(NCCN(C)C)nc(SCCCCCCCCCCCC)n1 [Compound D1S12N16] — lower, 0.0%
- CCCCCCCCCCCCCCCCNc1nc(NCCN2CCN(C)CC2)nc(SCCCCCCC)n1 [Compound D5S7N16] — higher, 32.2%
- CCCCCCCCCCCCCCCCNc1nc(NCCCN2CCOCC2)nc(SCCCCCC)n1 [Compound D8S6N16] — lower, 0.6%
- CCCCCCCCCCCCNc1nc(NCCN(CC)CC)nc(SCCCCCCCCCCC)n1 [Compound D7S11N12] — higher, 7.8%
- CCCCCCCCCCCCCCCCCCSc1nc(NCCN2CCOCC2)nc(N(CCCCCCCCCCCC)CCCCCCCCCCCC)n1 [D2S18^2N12] — lower, 0.0%
- CCCCCCCCCCCSc1nc(NCCCCCCC)nc(NCCCN2CCN(C)CC2)n1 [Compound D9S11N7] — higher, 10.5%
- CCCCCCCCCCCCCCCCCCSc1nc(NCCCCCCC)nc(NCCN2CCCC2)n1 [Compound D3S18N7] — higher, 97.2%
- CCCCCCCCCCCCSc1nc(NCCCCCCCCCCC)nc(NCCN2CCN(C)CC2)n1 [Compound D5S12N11] — lower, 1.1%
- CCCCCCCCCCCCCNc1nc(NCCN(C)C)nc(SCCCCCCCC)n1 [Compound D1S8N13] — higher, 15.5%
- CCCCCCCCCCCCN(CCCCCCCCCCCC)c1nc(NCCN2CCCCC2)nc(SCCCCCCC)n1 [D4S7^2N12] — lower, 1.0%
- CCCCCCCCCCCCCCCCCCSc1nc(NCCCCCCCCCCCCCCC)nc(NCC2CCN(C)CC2)n1 [Compound D10S18N15] — lower, 0.2%
- CCCCCCCCCCCCCNc1nc(NCCN2CCOCC2)nc(SCCCCCCCCCC)n1 [Compound D2S10N13] — lower, 0.2%
- CCCCCCCCCCCCCNc1nc(NCCCN(C)C)nc(SCCCCCC)n1 [Compound D6S6N13] — the same, 3.0%
- CCCCCCCCCCCCCCCSc1nc(NCCCCCCCCC)nc(NCCCN2CCN(C)CC2)n1 [Compound D9S15N9] — higher, 18.5%
- CCCCCCCCCCCCCCCNc1nc(NCCN(C)C)nc(SCCCCCC)n1 [Compound D1S6N15] — higher, 3.6%
- CCCCCCCCCCCCCCCCCCNc1nc(NCCN2CCCC2)nc(SCCCCCCCCCCCCCCC)n1 [Compound D3S15N18] — higher, 8.5%
- CCCCCCCCCCCCCCCCCCNc1nc(NCCCN(C)C)nc(SCCCCCCCCCCCCCCCCCC)n1 [Compound D6S18N18] — lower, 0.0%
- CCCCCCCCCCCCCNc1nc(NCCCN(C)C)nc(SCCCCCCCCCCC)n1 [Compound D6S11N13] — higher, 10.0%
- CCCCCCCCCCCSc1nc(NCCCCCC)nc(NCCCN2CCN(C)CC2)n1 [Compound D9S11N6] — higher, 12.2%
- CCCCCCCCCCCCCCCNc1nc(NCC2CCN(C)CC2)nc(SCCCCCCCCCCCCCCC)n1 [Compound D10S15N15] — lower, 2.4%
- CCCCCCCCCCCCCCSc1nc(NCCN(C)C)nc(SCCCCCC)n1 [Compound D1S6S14] — lower, 0.8%
- CCCCCCCCCCCCCCCNc1nc(NCCN2CCOCC2)nc(SCCCCCCCCCCC)n1 [Compound D2S11N15] — lower, 2.8%
- CCCCCCCNc1nc(NCCCN2CCOCC2)nc(SCCCCCCC)n1 [Compound D8S7N7] — lower, 1.4%
- CCCCCCCCCCCCCCCCSc1nc(NCCCCCCC)nc(NCCCN2CCN(C)CC2)n1 [Compound D9S16N7] — higher, 97.9%
- CCCCCCCCCCCCCCCCCCNc1nc(NCCN2CCCCC2)nc(SCCCCCCCCCCCCCCCC)n1 [Compound D4S16N18] — higher, 6.3%
- CCCCCCCCCCCCNc1nc(NCCCN(C)C)nc(SCCCCCCC)n1 [Compound D6S7N12] — higher, 12.5%
- CCCCCCCCCCCNc1nc(NCCCN(C)C)nc(SCCCCCCCCC)n1 [Compound D6S9N11] — higher, 58.8%
- CCCCCCCCCCCCCCCNc1nc(NCCN(CC)CC)nc(SCCCCCC)n1 [Compound D7S6N15] — lower, 2.2%
- CCCCCCNc1nc(NCCN(C)C)nc(SCCCCCC)n1 [Compound D1S6N6] — lower, 0.8%
- CCCCCCCCCCCSc1nc(NCCCCCCCC)nc(NCCCN2CCOCC2)n1 [Compound D8S11N8] — lower, 0.3%
- CCCCCCCCCCCCN(CCCCCCCCCCCC)c1nc(NCCN2CCN(C)CC2)nc(SCCCCCC)n1 [D5S6^2N12] — lower, 0.3%
- CCCCCCCCCCCCCCCCSc1nc(NCCCN(C)C)nc(SCCCCCC)n1 [Compound D6S6S16] — higher, 34.4%
- CCCCCCCCCCCCCCSc1nc(NCCCN2CCOCC2)nc(SCCCCCCC)n1 [Compound D8S7S14] — higher, 21.2%
- CCCCCCCCCSc1nc(NCCCCCC)nc(NCC2CCN(C)CC2)n1 [Compound D10S9N6] — lower, 0.6%
- CCCCCCCCCCCCCCCCCCNc1nc(NCC2CCN(C)CC2)nc(SCCCCCCCCCCC)n1 [Compound D10S11N18] — higher, 9.6%
- CCCCCCCCSc1nc(NCCN2CCCC2)nc(SCCCCCCC)n1 [Compound D3S7S8] — lower, 2.7%
- CCCCCCCCCCCNc1nc(NCCN(C)C)nc(SCCCCCCC)n1 [Compound D1S7N11] — higher, 5.8%
- CCCCCCCCCCCCCCSc1nc(NCCCN2CCN(C)CC2)nc(SCCCCCC)n1 [Compound D9S6S14] — higher, 35.8%
- CCCCCCCCCCCCNc1nc(NCCCN2CCN(C)CC2)nc(SCCCCCCC)n1 [Compound D9S7N12] — higher, 62.7%
- CCCCCCCCCCCCCCCCSc1nc(NCCCCCCCCC)nc(NCCN(CC)CC)n1 [Compound D7S16N9] — higher, 9.0%
- CCCCCCCCCCCCCCCNc1nc(NCCCN2CCN(C)CC2)nc(SCCCCCCCCCCCCCC)n1 [Compound D9S14N15] — lower, 0.5%
- CCCCCCCCCCCSc1nc(NCCCCCCCCC)nc(NCCN2CCN(C)CC2)n1 [Compound D5S11N9] — higher, 41.5%
- CCCCCCCCCCCSc1nc(NCCCN2CCN(C)CC2)nc(SCCCCCC)n1 [Compound D9S6S11] — higher, 8.5%
- CCCCCCCCCCCCN(CCCCCCCCCCCC)c1nc(NCCCN2CCOCC2)nc(SCCCCCC)n1 [D8S6^2N12] — lower, 0.0%
- CCCCCCCCCSc1nc(NCCN(CC)CC)nc(SCCCCCCCC)n1 [Compound D7S8S9] — higher, 11.1%
- CCCCCCCCCCCCCCCCNc1nc(NCCN2CCOCC2)nc(SCCCCCCCC)n1 [Compound D2S8N16] — higher, 3.4%
- CCCCCCCCCCCCSc1nc(NCCCCCCCCCCC)nc(NCCN(C)C)n1 [Compound D1S12N11] — lower, 2.6%
- CCCCCCCCCCCNc1nc(NCCN2CCN(C)CC2)nc(SCCCCCCCCCCC)n1 [Compound D5S11N11] — higher, 36.5%
- CCCCCCCCCNc1nc(NCCN2CCCC2)nc(SCCCCCC)n1 [Compound D3S6N9] — lower, 0.3%
- CCCCCCCCCCCCCCCSc1nc(NCCCCCCCCC)nc(NCCN(CC)CC)n1 [Compound D7S15N9] — higher, 9.4%
- CCCCCCCCCCCCNc1nc(NCCN2CCCC2)nc(SCCCCCCCCC)n1 [Compound D3S9N12] — higher, 49.6%
- CCCCCCCCCCSc1nc(NCCCCCCCCC)nc(NCCN2CCOCC2)n1 [Compound D2S10N9] — lower, 0.5%
- CCCCCCCCNc1nc(NCCN2CCOCC2)nc(SCCCCCC)n1 [Compound D2S6N8] — lower, 0.0%
- CCCCCCCCCCCCCCCCCCNc1nc(NCCN(CC)CC)nc(SCCCCCCCCCC)n1 [Compound D7S10N18] — higher, 25.9%
- CCCCCCCSc1nc(NCCN(CC)CC)nc(SCCCCCCC)n1 [Compound D7S7S7] — higher, 18.4%
- CCCCCCCCCCCCCCSc1nc(NCCCCCCC)nc(NCCN2CCCC2)n1 [Compound D3S14N7] — higher, 64.2%
- CCCCCCCCCCCCCCSc1nc(NCCCN2CCOCC2)nc(N(CCCCCCCCCCCC)CCCCCCCCCCCC)n1 [D8S14^2N12] — lower, 0.1%
- CCCCCCCCCCCSc1nc(NCCCCCCC)nc(NCCCN(C)C)n1 [Compound D6S11N7] — higher, 29.1%
- CCCCCCCCCCCCCCCCCCNc1nc(NCCN(CC)CC)nc(SCCCCCCCCCCCCCCC)n1 [Compound D7S15N18] — lower, 0.8%
- CCCCCCCCCCCCCCCSc1nc(NCCN2CCCCC2)nc(N(CCCCCCCCCCCC)CCCCCCCCCCCC)n1 [D4S15^2N12] — lower, 0.2%
- CCCCCCCCCCCCCCCNc1nc(NCCN(C)C)nc(SCCCCCCCCC)n1 [Compound D1S9N15] — higher, 27.4%
- CCCCCCCCCCCCCCCCNc1nc(NCC2CCN(C)CC2)nc(SCCCCCCCCCCCCCCCC)n1 [Compound D10S16N16] — lower, 2.8%
- CCCCCCCCCCCCCCCCNc1nc(NCCN(CC)CC)nc(SCCCCCCCCC)n1 [Compound D7S9N16] — higher, 10.9%
- CCCCCCCCCCCSc1nc(NCCCCCCCCC)nc(NCC2CCN(C)CC2)n1 [Compound D10S11N9] — higher, 87.7%
- CCCCCCCCCCCCSc1nc(NCCCCCC)nc(NCC2CCN(C)CC2)n1 [Compound D10S12N6] — lower, 0.2%
